Experimental data: article PMC5516794 (Journal of medicinal chemistry, 2017)

Tests used:
TMEM16A [1] = target: T1, TMEM16A (Homo sapiens, UniProt Q5XXA6); assay: Patch clamp, inside-out membrane patches from TMEM16A-expressing FRT cells; assay type: cell-based
T1 sequence (Q5XXA6 1-986): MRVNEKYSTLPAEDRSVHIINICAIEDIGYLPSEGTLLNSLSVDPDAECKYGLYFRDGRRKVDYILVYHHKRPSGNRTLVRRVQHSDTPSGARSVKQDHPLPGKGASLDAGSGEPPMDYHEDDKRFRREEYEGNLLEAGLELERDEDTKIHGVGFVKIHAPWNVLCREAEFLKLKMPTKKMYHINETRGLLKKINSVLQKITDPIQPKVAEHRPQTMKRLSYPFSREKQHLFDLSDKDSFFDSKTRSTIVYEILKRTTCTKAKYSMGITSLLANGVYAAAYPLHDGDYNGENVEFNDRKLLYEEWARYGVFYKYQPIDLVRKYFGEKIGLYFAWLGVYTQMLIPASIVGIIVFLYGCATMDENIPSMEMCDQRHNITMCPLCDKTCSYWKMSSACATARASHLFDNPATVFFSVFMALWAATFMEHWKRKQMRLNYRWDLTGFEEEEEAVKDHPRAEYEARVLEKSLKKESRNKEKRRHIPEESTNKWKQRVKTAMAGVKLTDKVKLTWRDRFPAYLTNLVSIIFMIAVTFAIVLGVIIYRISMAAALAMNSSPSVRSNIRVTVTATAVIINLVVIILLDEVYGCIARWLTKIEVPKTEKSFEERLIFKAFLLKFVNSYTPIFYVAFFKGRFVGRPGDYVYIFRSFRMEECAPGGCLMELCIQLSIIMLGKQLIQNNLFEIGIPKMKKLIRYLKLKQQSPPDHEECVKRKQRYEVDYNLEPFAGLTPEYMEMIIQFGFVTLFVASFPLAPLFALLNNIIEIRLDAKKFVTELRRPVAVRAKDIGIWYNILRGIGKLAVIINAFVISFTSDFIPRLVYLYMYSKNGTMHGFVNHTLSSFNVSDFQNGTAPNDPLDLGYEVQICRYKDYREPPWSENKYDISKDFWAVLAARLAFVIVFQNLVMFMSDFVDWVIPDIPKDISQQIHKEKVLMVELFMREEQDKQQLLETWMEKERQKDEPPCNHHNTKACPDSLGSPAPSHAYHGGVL

mouse ileum = assay: Ex vivo intestinal contractility; conditions: added to bath, concentration-dependent
cytoplasmic calcium = assay: Fluo-4 fluorescence measurement of ATP-stimulated cytoplasmic calcium elevation; assay type: cell-based; conditions: 1 μM
TMEM16A [2] = target: T1, TMEM16A; assay: Short-circuit current assay in TMEM16A-expressing FRT cells; assay type: cell-based; conditions: Figure S2A
[3] = Shelf stability as solid or DMSO stock; assay type: physicochemical; conditions: as a solid or in DMSO stock solution

- effect on TMEM16A membrane currents (TMEM16A [1]; 250 nM by perfusion, inside-out patch, free Ca2+ 305 nM): rapid inhibition of membrane currents
- recovery of membrane currents after washout (TMEM16A [1]; after 250 nM, washout): fully recovered following washout
- ionomycin- and carbachol-activated chloride conductance (TMEM16A [2]): inhibited
- long-term shelf stability [3]: > 6 months
SMILES: Cc1ccccc1NC(=O)c1c(NC(=O)C(F)(F)Br)sc2c1CCCCC2 [Compound 10bm]
- spontaneous isometric contractions of ileum (mouse ileum): strongly inhibited
- effect on ATP-stimulated cytoplasmic calcium (cytoplasmic calcium): not altered
